From ChEMBL document CHEMBL4823332, “Discovery and Development of Cyclic Peptide Inhibitors of CIB1” (ACS Med Chem Lett, 2021)
Positions of bridges follow the written chain, without caps; N, C: chain ends. Non-standard residues stand in square brackets, D forms with d. Residues, ends and D or L forms follow the SMILES beside them. ξ: configuration not given here. NMeW = CN[C@@H](Cc1c[nH]c2ccccc12)C(=O)O; Ala(2-furyl) = N[C@@H](Cc1ccco1)C(=O)O; NMeY = CN[C@@H](Cc1ccc(O)cc1)C(=O)O; hLeu = CC(C)CC[C@H](N)C(=O)O; ξhLeu = CC(C)CCC(N)C(=O)O; NMeA = CN[C@@H](C)C(=O)O; Nle = CCCC[C@H](N)C(=O)O

Target: T1, Calcium and integrin-binding protein 1 (Homo sapiens, UniProt Q99828)
T1 sequence (Q99828 whole entry): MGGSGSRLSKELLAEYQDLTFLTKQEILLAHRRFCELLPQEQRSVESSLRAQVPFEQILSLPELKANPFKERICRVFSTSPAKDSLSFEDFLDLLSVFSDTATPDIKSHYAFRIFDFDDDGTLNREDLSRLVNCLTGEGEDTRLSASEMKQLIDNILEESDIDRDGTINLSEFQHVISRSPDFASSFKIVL
Assay: Displacement of Alexa Fluor 647 labelled UNC10245092 peptide from CIB1 (unknown origin) preincubated for 20 mins followed by Alexa-CIB1 phage peptide addition and measured after 20 to 30 mins by TR-FRET assay

Compound | IC50
CC[C@H](C)[C@@H]1NC(=O)[C@H](CC(C)C)NC(=O)[C@H](Cc2c[nH]c3ccccc23)N(C)C(=O)[C@H](Cc2ccc(O)cc2)NC(=O)[C@@H]2CCCN2C(=O)[C@H](CCC(N)=O)NC(=O)[C@H](C)N(C)C(=O)[C@H](Cc2ccc(O)cc2)NC(=O)CSC[C@@H](C(N)=O)NC(=O)[C@H](Cc2c[nH]c3ccccc23)NC(=O)[C@H](Cc2ccco2)NC1=O ({CH2CO}-Y[NMeA]QPY[NMeW]LI[Ala(2-furyl)]WC-NH2; thioether N-11) | 0.19 µM
CC[C@H](C)[C@@H]1NC(=O)[C@H](CC(C)C)NC(=O)[C@H](Cc2c[nH]c3ccccc23)NC(=O)[C@H](Cc2ccc(O)cc2)NC(=O)[C@@H]2CCCN2C(=O)[C@H](C)NC(=O)[C@H](C)NC(=O)[C@H](Cc2ccc(O)cc2)NC(=O)CSC[C@@H](C(N)=O)NC(=O)[C@H](Cc2c[nH]c3ccccc23)NC(=O)[C@H](C)NC1=O ({CH2CO}-YAAPYWLIAWC-NH2; thioether N-11) | 0.82 µM
CCCC[C@@H]1NC(=O)[C@H](Cc2ccc(O)cc2)N(C)C(=O)CSC[C@@H](C(N)=O)NC(=O)[C@H](Cc2c[nH]c3ccccc23)NC(=O)[C@H](CC(N)=O)NC(=O)[C@H]([C@@H](C)CC)NC(=O)[C@H](CC(C)C)NC(=O)[C@H](Cc2c[nH]c3ccccc23)NC(=O)[C@H](Cc2ccc(O)cc2)NC(=O)[C@@H]2CCCN2C(=O)[C@@H](CCC(C)C)NC1=O | 0.84 µM
CC(C)C[C@@H]1NC(=O)[C@H](Cc2c[nH]c3ccccc23)NC(=O)[C@H](Cc2ccc(O)cc2)NC(=O)[C@@H]2CCCN2C(=O)[C@H](CCC(N)=O)NC(=O)[C@H](CCCCN)NC(=O)[C@H](Cc2ccc(O)cc2)NC(=O)CSC[C@@H](C(N)=O)NC(=O)[C@H](Cc2c[nH]c3ccccc23)NC(=O)[C@H](CC(N)=O)NC(=O)[C@H](C)NC1=O ({CH2CO}-YKQPYWLANWC-NH2; thioether N-11) | 0.17 µM
Ac-YKQPYWLINWA-NH2 | > 10 µM
CC[C@H](C)[C@@H]1NC(=O)[C@H](CC(C)C)NC(=O)[C@H](C)NC(=O)[C@H](Cc2ccc(O)cc2)NC(=O)[C@@H]2CCCN2C(=O)[C@H](CCC(N)=O)NC(=O)[C@H](CCCCN)NC(=O)[C@H](Cc2ccc(O)cc2)NC(=O)CSC[C@@H](C(N)=O)NC(=O)[C@H](Cc2c[nH]c3ccccc23)NC(=O)[C@H](CC(N)=O)NC1=O ({CH2CO}-YKQPYALINWC-NH2; thioether N-11) | 0.43 µM
CC[C@H](C)[C@@H]1NC(=O)[C@H](CC(C)C)NC(=O)[C@H](Cc2c[nH]c3ccccc23)N(C)C(=O)[C@H](Cc2ccc(O)cc2)NC(=O)[C@@H]2CCCN2C(=O)C(CCC(C)C)NC(=O)[C@H](C)N(C)C(=O)[C@H](Cc2ccc(O)cc2)NC(=O)CSC[C@@H](C(N)=O)NC(=O)[C@H](Cc2c[nH]c3ccccc23)NC(=O)[C@H](CC(N)=O)NC1=O (some centres not stated) ({CH2CO}-Y[NMeA][ξhLeu]PY[NMeW]LINWC-NH2; thioether N-11) | 0.19 µM
CC[C@H](C)[C@@H]1NC(=O)[C@H](CC(C)C)NC(=O)[C@H](Cc2c[nH]c3ccccc23)NC(=O)[C@H](Cc2ccc(O)cc2)NC(=O)[C@@H]2CCCN2C(=O)[C@H](CCC(C)C)NC(=O)[C@H](C)N(C)C(=O)[C@H](Cc2ccc(O)cc2)NC(=O)CSC[C@@H](C(N)=O)NC(=O)[C@H](Cc2c[nH]c3ccccc23)NC(=O)[C@H](Cc2ccco2)NC1=O ({CH2CO}-Y[NMeA][hLeu]PYWLI[Ala(2-furyl)]WC-NH2; thioether N-11) | 4.2 µM
CC[C@H](C)[C@@H]1NC(=O)[C@H](CC(C)C)NC(=O)[C@H](Cc2c[nH]c3ccccc23)NC(=O)[C@H](Cc2ccc(O)cc2)NC(=O)[C@@H]2CCCN2C(=O)[C@H](CCC(N)=O)NC(=O)[C@H](CCCCN)NC(=O)[C@H](C)NC(=O)CSC[C@@H](C(N)=O)NC(=O)[C@H](Cc2c[nH]c3ccccc23)NC(=O)[C@H](CC(N)=O)NC1=O ({CH2CO}-AKQPYWLINWC-NH2; thioether N-11) | 2.5 µM
CC[C@H](C)[C@@H]1NC(=O)[C@H](CC(C)C)NC(=O)[C@H](Cc2c[nH]c3ccccc23)NC(=O)[C@H](Cc2ccccc2)NC(=O)[C@@H]2CCCN2C(=O)[C@H](C)NC(=O)[C@H](C)NC(=O)[C@H](Cc2ccc(O)cc2)NC(=O)CSC[C@@H](C(N)=O)NC(=O)[C@H](Cc2c[nH]c3ccccc23)NC(=O)[C@H](CC(C)C)NC1=O ({CH2CO}-YAAPFWLILWC-NH2; thioether N-11) | 0.3 µM
CCCC[C@@H]1NC(=O)[C@H](Cc2ccc(O)cc2)N(C)C(=O)CSC[C@@H](C(N)=O)NC(=O)[C@H](Cc2c[nH]c3ccccc23)NC(=O)[C@@H](Cc2ccco2)NC(=O)[C@H]([C@@H](C)CC)NC(=O)[C@H](CC(C)C)NC(=O)[C@H](Cc2c[nH]c3ccccc23)NC(=O)[C@H](Cc2ccc(O)cc2)N(C)C(=O)[C@@H]2CCCN2C(=O)[C@H](CCC(N)=O)NC1=O | 3.9 µM
CC[C@H](C)[C@@H]1NC(=O)[C@H](CC(C)C)NC(=O)[C@H](Cc2c[nH]c3ccccc23)NC(=O)[C@H](Cc2ccc(O)cc2)NC(=O)[C@@H]2CCCN2C(=O)[C@H](CCC(N)=O)NC(=O)[C@H](CCCCN)NC(=O)[C@H](Cc2ccc(O)cc2)NC(=O)CSC[C@@H](C(N)=O)NC(=O)[C@H](C)NC(=O)[C@H](CC(N)=O)NC1=O ({CH2CO}-YKQPYWLINAC-NH2; thioether N-11) | 7.1 µM
CCCC[C@@H]1NC(=O)[C@H](Cc2ccc(O)cc2)NC(=O)CSC[C@@H](C(N)=O)NC(=O)[C@H](Cc2c[nH]c3ccccc23)NC(=O)[C@H](Cc2ccco2)NC(=O)[C@H]([C@@H](C)CC)NC(=O)[C@H](CC(C)C)NC(=O)[C@H](Cc2c[nH]c3ccccc23)NC(=O)[C@H](Cc2ccc(O)cc2)NC(=O)[C@@H]2CCCN2C(=O)[C@H](CCC(C)C)NC1=O ({CH2CO}-Y[Nle][hLeu]PYWLI[Ala(2-furyl)]WC-NH2; thioether N-11) | 1.5 µM

The next compounds have a lower IC50 than those just listed; values first:

IC50 | Compound
0.012 µM | CC[C@H](C)[C@@H]1NC(=O)[C@H]([C@@H](C)O)NC(=O)[C@H](Cc2c[nH]c3ccccc23)NC(=O)[C@@H]2CCCN2C(=O)CNC(=O)[C@H]([C@@H](C)O)NC(=O)[C@H](Cc2ccc(O)cc2)NC(=O)CSC[C@H](C(N)=O)NC(=O)[C@H](Cc2c[nH]c3ccccc23)NC(=O)[C@H](CCCNC(=N)N)NC1=O
0.065 µM | CC[C@H](C)[C@@H]1NC(=O)[C@H](CCCNC(=N)N)NC(=O)[C@H](Cc2c[nH]c3ccccc23)NC(=O)[C@H]([C@@H](C)O)NC(=O)[C@H](CO)NC(=O)[C@H](CCC(N)=O)NC(=O)[C@H](CCC(N)=O)NC(=O)[C@H](Cc2ccc(O)cc2)NC(=O)CSC[C@@H](C(N)=O)NC(=O)[C@H](Cc2c[nH]c3ccccc23)NC(=O)[C@H](CC(N)=O)NC1=O ({CH2CO}-YQQSTWRINWC-NH2; thioether N-11)
0.015 µM | CC[C@H](C)[C@@H]1NC(=O)[C@H](C)NC(=O)[C@H](Cc2c[nH]c3ccccc23)NC(=O)[C@H](Cc2ccc(O)cc2)NC(=O)[C@@H]2CCCN2C(=O)[C@H](CCC(N)=O)NC(=O)[C@H](CCCCN)NC(=O)[C@H](Cc2ccc(O)cc2)NC(=O)CSC[C@@H](C(N)=O)NC(=O)[C@H](Cc2c[nH]c3ccccc23)NC(=O)[C@H](CC(N)=O)NC1=O ({CH2CO}-YKQPYWAINWC-NH2; thioether N-11)
0.04 µM | CC[C@H](C)[C@@H]1NC(=O)[C@H](CC(C)C)NC(=O)[C@H](Cc2c[nH]c3ccccc23)NC(=O)[C@H](Cc2ccc(O)cc2)NC(=O)[C@@H]2CCCN2C(=O)[C@H](C)NC(=O)[C@H](CCCCN)NC(=O)[C@H](Cc2ccc(O)cc2)NC(=O)CSC[C@@H](C(N)=O)NC(=O)[C@H](Cc2c[nH]c3ccccc23)NC(=O)[C@H](CC(N)=O)NC1=O ({CH2CO}-YKAPYWLINWC-NH2; thioether N-11)
0.009 µM | CC[C@H](C)[C@@H]1NC(=O)[C@H](CC(C)C)NC(=O)[C@H](Cc2c[nH]c3ccccc23)NC(=O)[C@H](Cc2ccc(O)cc2)NC(=O)[C@H](C)NC(=O)[C@H](CCC(N)=O)NC(=O)[C@H](CCCCN)NC(=O)[C@H](Cc2ccc(O)cc2)NC(=O)CSC[C@@H](C(N)=O)NC(=O)[C@H](Cc2c[nH]c3ccccc23)NC(=O)[C@H](CC(N)=O)NC1=O ({CH2CO}-YKQAYWLINWC-NH2; thioether N-11)
0.067 µM | CC[C@H](C)[C@@H]1NC(=O)[C@H](CC(C)C)NC(=O)[C@H](Cc2c[nH]c3ccccc23)NC(=O)[C@H](Cc2ccc(O)cc2)N(C)C(=O)[C@@H]2CCCN2C(=O)[C@H](CCC(N)=O)NC(=O)[C@H](C)NC(=O)[C@H](Cc2ccc(O)cc2)NC(=O)CSC[C@@H](C(N)=O)NC(=O)[C@H](Cc2c[nH]c3ccccc23)NC(=O)[C@H](CC(C)C)NC1=O ({CH2CO}-YAQP[NMeY]WLILWC-NH2; thioether N-11)
0.015 µM | CC[C@H](C)[C@@H]1NC(=O)[C@H](CC(N)=O)NC(=O)[C@H](Cc2c[nH]c3ccccc23)NC(=O)[C@H]([C@@H](C)CC)NC(=O)[C@@H]2CCCN2C(=O)[C@H]([C@@H](C)O)NC(=O)[C@H]([C@@H](C)O)NC(=O)[C@H](Cc2ccc(O)cc2)NC(=O)CSC[C@@H](C(N)=O)NC(=O)[C@H](Cc2ccccc2)NC(=O)[C@H](CCCNC(=N)N)NC1=O ({CH2CO}-YTTPIWNIRFC-NH2; thioether N-11)
0.059 µM | CC[C@H](C)[C@@H]1NC(=O)[C@H](CC(C)C)NC(=O)[C@H](Cc2c[nH]c3ccccc23)N(C)C(=O)[C@H](Cc2ccc(O)cc2)NC(=O)[C@@H]2CCCN2C(=O)[C@H](CCC(N)=O)NC(=O)[C@H](CCCCN)NC(=O)[C@H](Cc2ccc(O)cc2)NC(=O)CSC[C@@H](C(N)=O)NC(=O)[C@H](Cc2c[nH]c3ccccc23)NC(=O)[C@H](CC(N)=O)NC1=O ({CH2CO}-YKQPY[NMeW]LINWC-NH2; thioether N-11)
0.054 µM | CC[C@H](C)[C@@H]1NC(=O)[C@H](CC(C)C)NC(=O)[C@H](Cc2c[nH]c3ccccc23)N(C)C(=O)[C@H](Cc2ccc(O)cc2)NC(=O)[C@@H]2CCCN2C(=O)[C@H](CCC(N)=O)NC(=O)[C@H](C)N(C)C(=O)[C@H](Cc2ccc(O)cc2)NC(=O)CSC[C@@H](C(N)=O)NC(=O)[C@H](Cc2c[nH]c3ccccc23)NC(=O)[C@H](CC(N)=O)NC1=O ({CH2CO}-Y[NMeA]QPY[NMeW]LINWC-NH2; thioether N-11)
